Results as given in ChEMBL document CHEMBL1201862, “PubChem BioAssay data set” (2004).
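Briefly, cells in 96-well plates were exposed to five compound concentrations for 48 h, and endpoints were estimated by linear interpolation. GI50 marks 50% less growth.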 Calls of active or inactive are those of the source. Rule as the data show it: active = GI50 up to about 1.1 µM and inactive = higher. *1 amine or outer side, *2 acyl side, *3 side chain or, on linkers, in order; H or OH if unused. Where a SMILES comes first, the peptide text is derived from it. Bridges are numbered along the chain shown (N, C = ends). Roman numbers before positions name the chains, in order. [ ]: non-standard residue; d: D form. Actinocin(1to9) = Cc1c2oc3c(C)ccc(C(=O)[*:2])c3nc-2c(C(=O)[*:1])c(N)c1=O; NMeV = CN[CH](C(=O)O)C(C)C; Sar = CNCC(=O)O

How the values were obtained:
Test in all cases: NCI anticancer screen, dose series, 48 h
786-0 = system: 786-0
CAKI-1 = system: CAKI-1
DU-145 = system: DU-145
HCT-116 = system: HCT-116
HOP-62 = system: HOP-62
Hs-578T = system: Hs-578T
K562 = system: K562
MCF7 = system: MCF7
MDA-N = system: MDA-N
SK-MEL-2 = system: SK-MEL-2
SK-MEL-5 = system: SK-MEL-5
SN12C = system: SN12C
SNB-19 = system: SNB-19
TK-10 = system: TK-10
U-251 = system: U-251
UACC-257 = system: UACC-257
UACC-62 = system: UACC-62
SR = system: SR
SK-OV-3 = system: SK-OV-3
HOP-92 = system: HOP-92

Measured: GI50

Cc1ccc2c(=O)c(C(=O)Nn3c(C)csc3=S)c[nH]c2n1
inactive: 786-0 > 100 µM | CAKI-1 69 µM | DU-145 > 100 µM | HCT-116 > 100 µM | HOP-62 > 100 µM | Hs-578T > 100 µM | K562 > 100 µM | MCF7 > 100 µM | MDA-N > 100 µM | SK-MEL-2 > 100 µM | SK-MEL-5 > 100 µM | SN12C > 100 µM | SNB-19 > 100 µM | TK-10 > 100 µM | U-251 > 100 µM | UACC-257 > 100 µM | UACC-62 > 100 µM

Clc1ccc(C2=CCN3CC=C(c4ccc(Cl)cc4)C23)cc1
inactive: 786-0 11.6 µM | CAKI-1 14.3 µM | DU-145 14.7 µM | HCT-116 5.98 µM | HOP-62 13.8 µM | Hs-578T 13.5 µM | K562 3.17 µM | MCF7 13.9 µM | MDA-N 10.8 µM | SK-MEL-2 15.5 µM | SK-MEL-5 2.47 µM | SN12C 8.71 µM | SNB-19 14.5 µM | SR 6.7 µM | TK-10 14 µM | U-251 11 µM | UACC-257 11.8 µM | UACC-62 7.24 µM

CC1(C)OC[C@@H](O)[C@H](Br)CO1
inactive: 786-0 > 100 µM | CAKI-1 > 100 µM | DU-145 > 100 µM | HCT-116 > 100 µM | HOP-62 > 100 µM | Hs-578T 68.2 µM | K562 79.8 µM | MCF7 > 100 µM | MDA-N > 100 µM | SK-MEL-2 > 100 µM | SK-OV-3 > 100 µM | SN12C > 100 µM | SNB-19 > 100 µM | SR > 100 µM | TK-10 > 100 µM | U-251 > 100 µM | UACC-257 > 100 µM | UACC-62 > 100 µM

CCC(=O)C1(N2CCOCC2)CCN(CCCC(=O)c2ccc(F)cc2)CC1
inactive: 786-0 > 100 µM | CAKI-1 > 100 µM | DU-145 > 100 µM | HCT-116 > 100 µM | HOP-62 > 100 µM | Hs-578T > 100 µM | K562 > 100 µM | MCF7 > 100 µM | MDA-N > 100 µM | SK-MEL-2 > 100 µM | SK-MEL-5 > 100 µM | SK-OV-3 > 100 µM | SN12C > 100 µM | SNB-19 > 100 µM | TK-10 > 100 µM | U-251 > 100 µM | UACC-62 > 100 µM

Nc1nc(Cl)c(N)c(NCC2(CO)CCC(OCc3ccccc3)C2)n1 (stereo unspecified)
inactive: 786-0 > 100 µM | CAKI-1 > 100 µM | DU-145 > 100 µM | HCT-116 > 100 µM | HOP-62 > 100 µM | HOP-92 > 100 µM | Hs-578T > 100 µM | K562 1.33 µM | MCF7 47.8 µM | MDA-N > 100 µM | SK-MEL-2 84.1 µM | SK-OV-3 > 100 µM | SN12C > 100 µM | SNB-19 > 100 µM | TK-10 > 100 µM | U-251 > 100 µM | UACC-62 > 100 µM
active: SK-MEL-5 0.305 µM | UACC-257 0.522 µM

Cc1[nH]c2c(c1Cc1ccccc1)C1=NC=C(O)NN1C=N2
inactive: 786-0 > 100 µM | CAKI-1 > 100 µM | DU-145 > 100 µM | HCT-116 85.7 µM | HOP-62 > 100 µM | Hs-578T 67.5 µM | MCF7 14.9 µM | MDA-N > 100 µM | SK-MEL-2 > 100 µM | SK-MEL-5 70 µM | SK-OV-3 > 100 µM | SN12C > 100 µM | SNB-19 > 100 µM | TK-10 74.1 µM | U-251 70.1 µM | UACC-257 > 100 µM | UACC-62 65.6 µM

CCOC(=O)C(Cc1cn(S(=O)(=O)c2ccc(C)cc2)cn1)P(=O)(OCC)OCC (stereo unspecified)
inactive: 786-0 > 100 µM | CAKI-1 > 100 µM | DU-145 > 100 µM | HCT-116 > 100 µM | HOP-62 > 100 µM | Hs-578T > 100 µM | K562 > 100 µM | MCF7 > 100 µM | MDA-N > 100 µM | SK-MEL-2 > 100 µM | SK-MEL-5 > 100 µM | SK-OV-3 > 100 µM | SN12C > 100 µM | SNB-19 > 100 µM | SR > 100 µM | TK-10 > 100 µM | U-251 > 100 µM | UACC-257 > 100 µM | UACC-62 > 100 µM

CC(C)C1=CC(=O)[C@@](C)(C2[C@H](O)C[C@@]3(C)[C@@H]4CC=C5[C@@H](CC[C@@H](OC6OCC(O)C(O)C6OC6OC(C)C(O)C(O)C6O)C5(C)C)[C@]4(C)C(=O)C[C@]23C)O1 (stereo partly specified)
inactive: 786-0 > 100 µM | CAKI-1 > 100 µM | DU-145 > 100 µM | HCT-116 > 100 µM | HOP-62 > 100 µM | HOP-92 > 100 µM | Hs-578T > 100 µM | K562 > 100 µM | MCF7 > 100 µM | MDA-N > 100 µM | SK-MEL-5 > 100 µM | SK-OV-3 > 100 µM | SN12C > 100 µM | SNB-19 > 100 µM | U-251 > 100 µM | UACC-62 > 100 µM

CONC(C)=O
inactive: 786-0 > 100 µM | CAKI-1 > 100 µM | DU-145 > 100 µM | HCT-116 > 100 µM | HOP-62 > 100 µM | Hs-578T > 100 µM | K562 > 100 µM | MCF7 > 100 µM | MDA-N > 100 µM | SK-MEL-2 > 100 µM | SK-MEL-5 > 100 µM | SK-OV-3 > 100 µM | SN12C > 100 µM | SNB-19 > 100 µM | SR > 100 µM | TK-10 > 100 µM | U-251 > 100 µM | UACC-257 > 100 µM | UACC-62 > 100 µM

CN(CCCNC(=O)c1n[nH]c2c1ccc1ccccc12)CCCNC(=O)c1n[nH]c2c1ccc1ccccc12
inactive: 786-0 10.9 µM | CAKI-1 16.8 µM | DU-145 15.7 µM | HCT-116 12.7 µM | HOP-62 16.8 µM | HOP-92 14.6 µM | Hs-578T 16.8 µM | MCF7 15 µM | MDA-N 2.14 µM | SK-MEL-2 10.6 µM | SK-MEL-5 4.68 µM | SK-OV-3 18.1 µM | SN12C 16.3 µM | SNB-19 18.8 µM | TK-10 17.9 µM | U-251 14.8 µM | UACC-257 4.24 µM | UACC-62 9.91 µM

FC(F)(F)C1(C(F)(F)F)C2CCC3(CC(F)(F)C(F)(F)S3)C1C2 (stereo unspecified)
inactive: 786-0 > 100 µM | CAKI-1 98.2 µM | DU-145 73.6 µM | HCT-116 20.2 µM | HOP-62 48.4 µM | Hs-578T > 100 µM | K562 36 µM | MCF7 36.1 µM | MDA-N > 100 µM | SK-MEL-2 22.6 µM | SK-MEL-5 44.3 µM | SK-OV-3 > 100 µM | SN12C > 100 µM | SNB-19 > 100 µM | SR 21.3 µM | TK-10 > 100 µM | U-251 > 100 µM | UACC-257 26.1 µM | UACC-62 > 100 µM

CC(=O)[O-].[Zn+].c1ccc(/C(=N\Nc2ccccn2)c2ccccn2)cc1
active: 786-0 0.137 µM | CAKI-1 0.119 µM | DU-145 0.458 µM | HCT-116 0.005 µM | HOP-62 0.269 µM | HOP-92 0.381 µM | Hs-578T 0.931 µM | K562 0.00535 µM | MCF7 0.000912 µM | MDA-N 0.426 µM | SK-MEL-5 0.0684 µM | SK-OV-3 0.0615 µM | SN12C 0.0424 µM | SNB-19 1.06 µM | TK-10 0.44 µM | U-251 0.281 µM | UACC-257 0.08 µM | UACC-62 0.182 µM
inactive: SK-MEL-2 1.33 µM

O=C1c2cccnc2-c2nccc3ccnc1c23
active: 786-0 0.461 µM | CAKI-1 0.116 µM | DU-145 0.966 µM | HCT-116 0.0865 µM | HOP-92 0.687 µM | K562 0.0456 µM | MCF7 0.24 µM | MDA-N 0.2 µM | SK-MEL-5 0.61 µM | SN12C 1.04 µM | SNB-19 1.03 µM | U-251 1.05 µM | UACC-257 0.964 µM | UACC-62 0.601 µM
inactive: HOP-62 3.53 µM | Hs-578T 2.02 µM | SK-MEL-2 2.16 µM | SK-OV-3 1.49 µM | TK-10 1.7 µM

COc1ccccc1-c1nc(O)c2ccccc2n1
inactive: 786-0 > 100 µM | CAKI-1 > 100 µM | DU-145 > 100 µM | HCT-116 > 100 µM | HOP-62 > 100 µM | Hs-578T > 100 µM | MCF7 > 100 µM | MDA-N > 100 µM | SK-MEL-2 > 100 µM | SK-MEL-5 > 100 µM | SK-OV-3 > 100 µM | SN12C 56 µM | SNB-19 > 100 µM | SR > 100 µM | U-251 > 100 µM | UACC-257 > 100 µM | UACC-62 > 100 µM

COc1ccc(CC2NC(=O)C(NC(=O)c3c4nc5c(C(=O)NC6C(=O)NC(Cc7ccc(OC)cc7)C(=O)N7CCCC7C(=O)N(C)CC(=O)N(C)C(C(C)C)C(=O)OC6C)ccc(C)c5oc-4c(C)c(=O)c3N)C(C)OC(=O)C(C(C)C)N(C)C(=O)CN(C)C(=O)C3CCCN3C2=O)cc1 (stereo unspecified) (I: TY(Me)P[Sar][NMeV] / II: TY(Me)P[Sar][NMeV]; ester I:1-I:C, II:1-II:C; linker I:N-II:N via Actinocin(1to9); configuration not given here)
active: 786-0 0.0141 µM | CAKI-1 0.00869 µM | DU-145 < 0.001 µM | HCT-116 < 0.001 µM | HOP-62 0.00681 µM | Hs-578T 0.022 µM | K562 < 0.001 µM | MCF7 < 0.001 µM | MDA-N < 0.001 µM | SK-MEL-2 0.015 µM | SK-MEL-5 < 0.001 µM | SK-OV-3 0.0116 µM | SN12C < 0.001 µM | SNB-19 < 0.001 µM | SR < 0.001 µM | TK-10 0.0351 µM | U-251 < 0.001 µM | UACC-257 < 0.001 µM | UACC-62 < 0.001 µM
